Converted amounts (≈) assume the structure as drawn. A value given as a limit tells only on which side of the number the result lay.

One data set deals with C. albicans K1. As to the kind of experiment: Neutropenic murine disseminated candidiasis model, C. albicans K1. It is filed as in vivo, Candida albicans. The following applies: mice. An excerpt: (§1) Animals. Six-week-old ICR Swiss specific-pathogen-free female mice weighing 23 to 27 g were used for all studies. Animals were maintained in accordance with the American Association for Accreditation of Laboratory Care criteria. Animal studies were approved by the University of Wisconsin Animal Research Committee.
C. auris B11211 and C. albicans K1 Infection model. A neutropenic, murine, disseminated candidiasis model was used for the treatment studies. Mice were rendered neutropenic (neutrophils, <100/mm^3) by injecting them with cyclophosphamide (Mead Johnson Pharmaceuticals, Evansville, IN) subcutaneously 4 days (150 mg/kg) and 1 day (100 mg/kg) before infection, and 2 days after infection (100 mg/kg). Previous studies have shown neutropenia (<100 mm^3) in this model for the 96-h study period.
(§2) Disseminated infection with C. auris B11211 infection was produced by injection of 0.1 ml of the inoculum via the lateral tail vein 2 h prior to the start of antifungal therapy. […] The results are expressed as the mean and standard deviation of the log10 CFU/kidney from three mice. […]
(§3) Results. A multi-dose experiment with C. auris B11211 infection murine model was evaluated, and four doses (1, 2, 4, and 8 mg/kg) of turbinmicin were administered to mice every six hours over a 24 h period; turbinmicin was administered by intraperitoneal route.

Another data set has as its system A. fumigatus F11628. The data set is described as follows: Neutropenic murine nasal aspiration pneumonia model of invasive pulmonary aspergillosis. It is filed as in vivo, Aspergillus fumigatus.
Another data set concerns sheep red blood cells. The data set is described as follows: Hemolysis assay. It is filed as cell-based. The following applies: 1 h, concentrations exceeding the MIC by 1000-fold. The method, then:
Hemolysis Assay. Assays were performed in 384-well plates using sheep blood (0.1% triton as the positive control). Sheep's blood (Ward's Science) was washed with PBS and diluted to a concentration of 6×10^7 red blood cells per ml. A volume of 50 μL of blood was incubated with compound for 1 h, and subsequently pelleted at 4000 rpm for 10 min. Thirty microliters of supernatant were transferred to a clear plate and OD570 was read. An increase in OD indicated the red blood cell lysis and hemolytic activity.

The next data set relates to A. fumigatus. As to the kind of experiment: Time kill experiments. The following applies: A. fumigatus as printed in b90 (FIG. 6C), 0-48 h. It is filed as cell-based, Aspergillus fumigatus.
Another data set deals with C. tropicalis. The data set is described as follows: In vitro MIC susceptibility testing, broth microdilution. It is filed as cell-based. The following applies: Candida tropicalis. As for the experimental part: In vitro MIC susceptibility testing. […] The plates were incubated at 33° C. for 72 h. The MICs were determined as the lowest concentration that inhibited visible growth. The MICs were read at 24, 48, and 72 hours, respectively.
For orientation: Broth dilution looks for growth in wells or tubes with falling amounts of substance.

In another data set the test system is C. glabrata. The description is as above. It is filed as cell-based, Candida glabrata. The method, then: In vitro MIC susceptibility testing. […]. Amphotericin B was used as a positive control and the MICs range were 0.25-1.5 μg/mL. Six untreated media controls were included on each plate. The plates were incubated at 33° C. for 72 h. The MICs were determined as the lowest concentration that inhibited visible growth. The MICs were read at 24, 48, and 72 hours, respectively. […]

The next data set deals with C. auris B11211. As to the kind of experiment: Neutropenic murine disseminated candidiasis model, C. auris B11211. It counts as in vivo, Candida auris. The following applies: mice.
Excerpt: as §1
C. auris B11211 and C. albicans K1 Infection model. A neutropenic, murine, disseminated candidiasis model was used for the treatment studies. […]
C auris B11211 was subcultured on SDA 24 h prior to infection. […] Fungal counts of the inoculum determined by viable counts of C. auris on SDA were 6.25±0.03 log10 CFU ml^−1, respectively. […] Results were expressed as the mean number of CFU per kidney for three mice. […]
as §2, §3

`C/C=C/C=C/C=C/C(=O)OC1C=CCC2C(=O)c3c(O)c4c5c(c3OC12)OCOC5CC1C(=O)c2cc(C)[nH]c(=O)c2C(=O)C41O` (stereo not drawn) [Turbinmicin, turbinmicin]: the CFU/kidney reduction in the data set with C. albicans K1 (multi-dose 1, 2, 4 and 8 mg/kg intraperitoneal over 24 hours) is given as > 1 log 10 CFU/kidney; with C. auris B11211 (multi-dose 1, 2, 4 and 8 mg/kg intraperitoneal every six hours over 24 h, at 24 h, dose-dependent) it was > 3 log 10 CFU/kidney. For the same molecule, the “in vivo efficacy, single dose” value with C. albicans K1 (single intraperitoneal dose 16, 32, 48 and 64 mg/kg, 6 h) is reported as “showed in vivo efficacy”. Further, the survival in the data set with A. fumigatus F11628 (mice, 0.25, 0.5 and 1 mg/kg IP every 6 hrs for 4 days, all three dosages) came out at 100%. The “CE/mL reduction of lung homogenate measured by qPCR” value in the data set on A. fumigatus F11628 (mice, dose of 1 mg/kg IP every 6 hrs for 4 days) amounted to 1 log 10 CE/mL. In addition, the “red blood cell toxicity (hemolysis)” value in the data set with sheep red blood cells is on record as “did not exhibit red blood cell toxicity”. The time-kill activity entry with A. fumigatus was “Fungacidal activity was observed”. Moreover, the MIC (in general, the least concentration at which growth counts as inhibited) turned out to be 0.25 µg/mL (≈ 0.398 µM) in the data set with C. tropicalis (ATCC750, strain ATCC 750); 0.5 µg/mL (≈ 0.797 µM) in the data set on C. tropicalis (strain 001); 0.5 µg/mL (≈ 0.797 µM) against C. tropicalis (strain 98-234); 0.25 µg/mL (≈ 0.398 µM) with C. tropicalis (strain 1751); 0.25 µg/mL (≈ 0.398 µM) against C. tropicalis (strain 2597); 0.5 µg/mL (≈ 0.797 µM) with C. glabrata (Nakaseomyces glabratus). Also, the MIC in the data set with C. glabrata (strain 513) is 0.5 µg/mL (≈ 0.797 µM); with C. glabrata (strain 729, Fks2_HS1_S663P) it was 0.5 µg/mL (≈ 0.797 µM); in the data set with C. glabrata (strain 5592) it was 0.5 µg/mL (≈ 0.797 µM); in the data set on C. glabrata (strain 14378, Fks1_HS1_S629P), 0.5 µg/mL (≈ 0.797 µM). Besides, the “antifungal effect, single dose” value with C. auris B11211 (single intraperitoneal dose 8, 16, 32, 64 mg/kg, 6 h, data not shown) is reported as “failed to reveal a significant antifungal effect”.

Values taken from patent US12240859B2, “Turbinmicin compounds, compositions and uses thereof” (Wisconsin Alumni Research Foundation, priority 2019, dated 2025).
